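Cultured in 96-well plates, cells were exposed to test compound for 48 hours across five concentrations. Here, GI50 denotes the concentration required for 50% inhibition of growth.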 Calls of active or inactive are those of the source. Rule as the data show it: active = GI50 up to about 1.1 µM and inactive = higher.
How the values were obtained:
Assay in all cases: NCI anticancer screen, dose series, 48 h
[1] = tested on: HCC 2998
[2] = tested on: SNB-78
[3] = tested on: HT-29
[4] = tested on: OVCAR-3
[5] = tested on: IGROV-1
[6] = tested on: CCRF-CEM
[7] = tested on: SK-MEL-5
[8] = tested on: SK-OV-3
[9] = tested on: SK-MEL-2
[10] = tested on: K562
[11] = tested on: SK-MEL-28
[12] = tested on: EKVX
[13] = tested on: 786-0
[14] = tested on: RPMI-8226
[15] = tested on: A498
[16] = tested on: NCI-H522
[17] = tested on: SNB-19
[18] = tested on: BT-549
[19] = tested on: Hs-578T
[20] = tested on: T47D

| SMILES | GI50 [1] | GI50 [2] | GI50 [3] | GI50 [4] | GI50 [5] | GI50 [6] | GI50 [7] | GI50 [8] | GI50 [9] | GI50 [10] | GI50 [11] | GI50 [12] | GI50 [13] | GI50 [14] | GI50 [15] | GI50 [16] | GI50 [17] | GI50 [18] | GI50 [19] | GI50 [20] |
| --- | --- | --- | --- | --- | --- | --- | --- | --- | --- | --- | --- | --- | --- | --- | --- | --- | --- | --- | --- | --- |
| O=S(=O)(N/N=C/c1ccc(Cl)cc1Cl)c1ccccc1 | > 100 µM (inactive) | > 100 µM (inactive) | 80.2 µM (inactive) | 91.4 µM (inactive) | > 100 µM (inactive) | 38.5 µM (inactive) | > 100 µM (inactive) | 91.8 µM (inactive) | > 100 µM (inactive) | 59 µM (inactive) | 67.8 µM (inactive) | > 100 µM (inactive) | > 100 µM (inactive) | 84.7 µM (inactive) | > 100 µM (inactive) | – | – | – | – | – |
| Fc1ccc(C2SCc3nc4ccccc4n32)cc1Cl (configuration not stated) | 16.3 µM (inactive) | 48.8 µM (inactive) | 37.1 µM (inactive) | – | > 10 µM (inactive) | 25.6 µM (inactive) | – | 17.5 µM (inactive) | > 10 µM (inactive) | 16.5 µM (inactive) | 24.7 µM (inactive) | 24.3 µM (inactive) | 27.7 µM (inactive) | – | 33.7 µM (inactive) | 13.7 µM (inactive) | 34.4 µM (inactive) | – | – | – |
| O=C(CC1(O)C(=O)Nc2c(Cl)ccc(Cl)c21)c1ccc(Cl)cc1 (configuration not stated) | 24.5 µM (inactive) | 49.1 µM (inactive) | 28.2 µM (inactive) | 23.3 µM (inactive) | 23.9 µM (inactive) | – | – | 34.8 µM (inactive) | 25.2 µM (inactive) | – | 53.7 µM (inactive) | 95.3 µM (inactive) | 16.7 µM (inactive) | 21 µM (inactive) | 38.4 µM (inactive) | – | 67.8 µM (inactive) | – | – | – |
| O=C(O)c1c2c(cc3c(=O)c4ccccc4[nH]c13)CCCC2 | 46.3 µM (inactive) | > 100 µM (inactive) | > 100 µM (inactive) | > 100 µM (inactive) | > 100 µM (inactive) | > 100 µM (inactive) | – | > 100 µM (inactive) | > 100 µM (inactive) | – | > 100 µM (inactive) | > 100 µM (inactive) | 72.8 µM (inactive) | > 100 µM (inactive) | – | – | 88.5 µM (inactive) | – | – | – |
| COC(=O)C1=C(O)c2cc(-c3ccccc3)c(-c3ccccc3)c(C#N)c2NC(=O)C1 | 34.9 µM (inactive) | 14 µM (inactive) | 5.81 µM (inactive) | 77.8 µM (inactive) | 0.522 µM (active) | 7.14 µM (inactive) | – | – | 40.8 µM (inactive) | 3.27 µM (inactive) | 34.5 µM (inactive) | > 100 µM (inactive) | 8.38 µM (inactive) | – | 33.9 µM (inactive) | – | 20.4 µM (inactive) | – | – | – |
| Cc1[nH]c2ccccc2c1/C=N/c1ccc(/N=C/c2c(C)[nH]c3ccccc23)cc1 | 36.9 µM (inactive) | – | 34 µM (inactive) | 41 µM (inactive) | 49.9 µM (inactive) | 15.4 µM (inactive) | 17.2 µM (inactive) | 49.8 µM (inactive) | 23.9 µM (inactive) | 21.2 µM (inactive) | 97.5 µM (inactive) | 38.9 µM (inactive) | 18.8 µM (inactive) | 18.3 µM (inactive) | 52.1 µM (inactive) | 17.5 µM (inactive) | 61.9 µM (inactive) | 47.9 µM (inactive) | 47 µM (inactive) | 25.4 µM (inactive) |
| N#Cc1c(-c2ccccc2)cc(Nc2ccc(Cl)cc2)n2c1nc1ccccc12 | 3.78 µM (inactive) | – | 2.14 µM (inactive) | 1.85 µM (inactive) | 1.36 µM (inactive) | 4.66 µM (inactive) | 1.46 µM (inactive) | 2.72 µM (inactive) | 2.99 µM (inactive) | 1.49 µM (inactive) | > 55 µM (inactive) | 1.52 µM (inactive) | 2.62 µM (inactive) | 1.22 µM (inactive) | 3.71 µM (inactive) | 1.91 µM (inactive) | 2.93 µM (inactive) | 4.59 µM (inactive) | 1.59 µM (inactive) | 2.71 µM (inactive) |
| N/N=C(\CCN1CCCC1)CC(c1ccccc1)c1c(O)c2ccccc2oc1=O (configuration not stated) | > 100 µM (inactive) | > 100 µM (inactive) | > 100 µM (inactive) | > 100 µM (inactive) | > 100 µM (inactive) | > 100 µM (inactive) | > 100 µM (inactive) | > 100 µM (inactive) | > 100 µM (inactive) | > 100 µM (inactive) | > 100 µM (inactive) | 44.2 µM (inactive) | > 100 µM (inactive) | > 100 µM (inactive) | – | > 100 µM (inactive) | > 100 µM (inactive) | – | – | – |
| CCOC1OC(=O)c2cc3ccc4c(c3c(-c3ccc5c(c3)OCO5)c21)OCO4 (configuration not stated) | 2.26 µM (inactive) | – | 4.76 µM (inactive) | 0.417 µM (active) | 4.6 µM (inactive) | 9.33 µM (inactive) | 2.72 µM (inactive) | 1.42 µM (inactive) | 12.8 µM (inactive) | 7.6 µM (inactive) | 9.53 µM (inactive) | 3.54 µM (inactive) | 9.06 µM (inactive) | 4.12 µM (inactive) | 9.4 µM (inactive) | 0.687 µM (active) | 8.95 µM (inactive) | 4.28 µM (inactive) | 3.2 µM (inactive) | 9.79 µM (inactive) |
| CC1=NN(C(=O)CC(=O)Nc2ccc(C)cc2)C(=O)C1/N=N\c1ccc(S(=O)(=O)c2ccc(/N=N/C3C(=O)N(C(=O)CC(=O)Nc4ccc(C)cc4)N=C3C)cc2)cc1 (configuration not stated) | 83.6 µM (inactive) | – | > 10 µM (inactive) | 64.6 µM (inactive) | 28.4 µM (inactive) | 9.4 µM (inactive) | 58.9 µM (inactive) | 72.4 µM (inactive) | 58.6 µM (inactive) | 4.98 µM (inactive) | > 100 µM (inactive) | > 100 µM (inactive) | 21 µM (inactive) | 82.4 µM (inactive) | > 100 µM (inactive) | 23.3 µM (inactive) | > 100 µM (inactive) | > 100 µM (inactive) | 93.8 µM (inactive) | > 100 µM (inactive) |
| CN(C)c1ccc(/C=c2\c3cc([N+](=O)[O-])ccc3n3c2cc(-c2ccccc2)[n+]3C)cc1 | 2.28 µM (inactive) | – | 1.52 µM (inactive) | 1.46 µM (inactive) | 0.964 µM (active) | 0.601 µM (active) | 0.318 µM (active) | 3.92 µM (inactive) | 0.521 µM (active) | 0.265 µM (active) | 0.948 µM (active) | 0.998 µM (active) | 3.31 µM (inactive) | 0.264 µM (active) | 2.28 µM (inactive) | 0.497 µM (active) | 0.925 µM (active) | 1.23 µM (inactive) | 1.62 µM (inactive) | 0.458 µM (active) |
| COC1CC(n2cc(F)c(N)nc2=O)OC1CO (configuration not stated) | 9.77 µM (inactive) | > 100 µM (inactive) | > 100 µM (inactive) | > 100 µM (inactive) | – | > 100 µM (inactive) | > 100 µM (inactive) | > 100 µM (inactive) | > 100 µM (inactive) | > 100 µM (inactive) | > 100 µM (inactive) | > 100 µM (inactive) | > 100 µM (inactive) | > 100 µM (inactive) | – | > 100 µM (inactive) | > 100 µM (inactive) | – | – | – |
| Nc1nc2c(c(=O)[n-]1)[n+](CCO)cn2C1OC(CO)C(O)C1O (configuration not stated) | – | > 100 µM (inactive) | > 100 µM (inactive) | > 100 µM (inactive) | > 100 µM (inactive) | > 100 µM (inactive) | > 100 µM (inactive) | > 100 µM (inactive) | > 100 µM (inactive) | > 100 µM (inactive) | > 100 µM (inactive) | > 100 µM (inactive) | > 100 µM (inactive) | > 100 µM (inactive) | > 100 µM (inactive) | > 100 µM (inactive) | – | – | – | – |
| CC(C)[C@H]1NC(=O)[C@H]2N=C(O[C@@H]2C)[C@@H]2CCCN2C(=O)[C@H](Cc2ccccc2)NC(=O)[C@@H]2CSC(=N2)[C@@H](Cc2ccccc2)NC(=O)[C@@H]2CSC1=N2 | 21.7 µM (inactive) | – | 84.5 µM (inactive) | 38.5 µM (inactive) | 41.1 µM (inactive) | > 100 µM (inactive) | 95.9 µM (inactive) | > 100 µM (inactive) | 85.9 µM (inactive) | 92.9 µM (inactive) | 75.3 µM (inactive) | > 100 µM (inactive) | > 100 µM (inactive) | 20 µM (inactive) | > 100 µM (inactive) | 58.2 µM (inactive) | > 100 µM (inactive) | > 100 µM (inactive) | > 100 µM (inactive) | > 100 µM (inactive) |
| C/C(CC(=O)Nc1ccccc1)=N\NC(N)=S | > 100 µM (inactive) | > 100 µM (inactive) | > 100 µM (inactive) | > 100 µM (inactive) | > 100 µM (inactive) | > 100 µM (inactive) | > 100 µM (inactive) | > 100 µM (inactive) | > 100 µM (inactive) | > 100 µM (inactive) | > 100 µM (inactive) | > 100 µM (inactive) | > 100 µM (inactive) | > 100 µM (inactive) | – | > 100 µM (inactive) | – | – | – | – |
| C/C=C\C(CC(=O)NCC(=O)c1c[nH]c2ccccc12)CC(=O)OC (configuration not stated) | > 100 µM (inactive) | – | > 100 µM (inactive) | > 100 µM (inactive) | > 100 µM (inactive) | 75.2 µM (inactive) | > 100 µM (inactive) | > 100 µM (inactive) | > 100 µM (inactive) | > 100 µM (inactive) | > 100 µM (inactive) | > 100 µM (inactive) | > 100 µM (inactive) | > 100 µM (inactive) | > 100 µM (inactive) | > 100 µM (inactive) | > 100 µM (inactive) | > 100 µM (inactive) | > 100 µM (inactive) | > 100 µM (inactive) |
